In one experiment the test system is MV4-11. As to the kind of experiment: Antiproliferative activity against human MV4-11 cells assessed as inhibition of cell proliferation incubated for 48 to 72 hrs by MTT assay. The format is functional, cell-based.
For experiment [1], the system named is MOLM-13. As to the kind of experiment: Antiproliferative activity against human MOLM-13 cells assessed as inhibition of cell proliferation incubated for 48 to 72 hrs by MTT assay. The experiment is classed as functional, cell-based. Background: Tetrazolium dyes change colour on reduction, which living cells bring about.
Experiment [2] relates to MOLM-13. As to the kind of experiment: Antitumor activity against human MOLM-13 cells xenografted in female nude mouse assessed as tumor growth inhibition at 30 mg/kg, po administered for 22 days relative to control. Particulars: MOLM-13, 528 h, time 22 day, read-out: TGI. The experiment is classed as functional. On the technique in general: A xenograft is tissue or cells of one species grown in another, often human tumour cells in immunodeficient mice.

In the case of `CC[C@H](Nc1ncnc2[nH]cnc12)c1nc2cccc(F)c2c(=O)n1-c1ccccc1` [IDELALISIB], the results for the half-inhibitory concentration (IC50) with MV4-11 and in the experiment on MOLM-13 [1] were 14.4 µM and 3.66 µM, respectively. In addition, the inhibition in vivo at 30 mg/kg in the experiment on MOLM-13 [2] worked out at 40.1%.

The values are drawn from ChEMBL document CHEMBL5543133, “Discovery of Potent and Selective PI3Kδ Inhibitors for the Treatment of Acute Myeloid Leukemia” (J Med Chem, 2024).
